Measurements from patent US6541208B1, “Diagnostic method for distinguishing HIV-associated dementia from other forms of dementia” (University of Maryland Biotechnology Institute, priority 1998, dated 2003).

Experiments:
[1] = test system: astrocytic MCP-1 expression; assay: Northern blot analysis of MCP-1 RNA in stimulated human astrocytes; type: cell-based
Excerpt: FIG. 1A—Total RNA was extracted from T lymphoblastoid HUT 78 cells (ATCC), and from variously treated human astrocytes. Ten μg per lane were then run on a 1% agarose-6% formaldehyde gel. Following transfer of RNA to nitrocellulose, the blot was probed with the full-length cDNA for MCP-1, and subsequently, RANTES. RNA from untreated astrocytes was run in lanes 2 and 4. […] Astrocytic expression of RANTES was not detected.
FIG. 1B—Similar experience except that RNA from HUT 78 cells (lane 1) was compared to RNA from astrocytes that were unstimulated (lane 2) or stimulated for 2 hr with 100 nM Tat (lane 3), 25 μM TPCK followed by 100 nM Tat (lane 4) or 25 μM TPCK (lane 5).
Brain tissue from 12-14 wk human fetuses was obtained in accordance with NIH guidelines. The tissue was mechanically disrupted by aspiration through a 19-gauge needle, washed in Eagle's minimal essential medium (EMEM) and then distributed into tissue culture flasks. Cells were maintained in EMEM containing 10% fetal bovine serum, 2 mM L-glutamine and 5 μg/ml gentamicin. Several days later, flasks were placed into an orbital incubator shaker at 37° C. and 210 rpm for 6 hr. Non-adherent cells were removed. A portion of the adherent cells were later stained with an antibody to glial fibrallary acidic protein and only those cultures which were >95% positive were used. […]

[2] = test system: MCP-1 activity; settings: point mutations Thr-10 to Arg and Tyr-13 to Ile; cited from earlier work

For `Cc1ccc(S(=O)(=O)N[C@@H](Cc2ccccc2)C(=O)CCl)cc1` [TPCK, n-tosli-L-phenylalanine chloromethyl ketone, reference compound], the “effect on Tat-induced increase in MCP-1 encoding RNA” value ([1]; 25 μM TPCK followed by 100 nM Tat, 2 hr) was “inhibited”.

In the case of “MCP-1 protein with point mutations of Thr-10 to Arg and Tyr-13 to Ile: mutant MCP-1 protein from Beal et al., contemplated as MCP-1 antagonist”, the “MCP-1 activity of the mutant protein” value [2] is listed as “greatly reduced MCP-1 activity”.

With “interleukin-1β: cytokine used at 5 ng/ml to stimulate astrocytes [reference compound]” the “astrocytic MCP-1 expression (MCP-1 encoding RNA)” value ([1]; 5 ng/ml interleukin-1β, 4 hr stimulation, human astrocytes) was “increase in astrocytic MCP-1 expression”.
